Assay results published in the NIST ThermoML archive (doi:10.1016/j.fluid.2007.04.023).

Conditions: Liquid, Vibrating tube method

CCCCCCCCCCCCC [tridecane]
Conditions | mass density [kg/m3]
342.64 K, 1022 kPa | 722.03
342.64 K, 2014 kPa | 722.93
342.64 K, 3025 kPa | 723.84
342.64 K, 4021 kPa | 724.7
342.64 K, 5020 kPa | 725.59
342.64 K, 6020 kPa | 726.44
342.64 K, 7008 kPa | 727.27
342.64 K, 8026 kPa | 728.15
342.64 K, 9007 kPa | 728.98
342.64 K, 10010 kPa | 729.81
342.64 K, 11012 kPa | 730.63
342.64 K, 12014 kPa | 731.46
342.64 K, 13011 kPa | 732.27
342.64 K, 14008 kPa | 733.03
342.64 K, 15029 kPa | 733.84
342.64 K, 16006 kPa | 734.58
342.64 K, 17016 kPa | 735.35
342.64 K, 18019 kPa | 736.09
342.64 K, 19006 kPa | 736.85
342.64 K, 20001 kPa | 737.59
342.64 K, 21023 kPa | 738.34
342.64 K, 22008 kPa | 739.06
342.64 K, 23005 kPa | 739.79
342.64 K, 24032 kPa | 740.52
342.64 K, 25024 kPa | 741.14
352.47 K, 1013 kPa | 714.88
352.47 K, 2022 kPa | 715.88
352.47 K, 3010 kPa | 716.8
352.47 K, 4020 kPa | 717.71
352.47 K, 5019 kPa | 718.65
352.47 K, 6011 kPa | 719.55
352.47 K, 7017 kPa | 720.47
352.47 K, 8014 kPa | 721.35
352.47 K, 9022 kPa | 722.24
352.47 K, 10031 kPa | 723.11
352.47 K, 11010 kPa | 723.98
352.47 K, 12003 kPa | 724.82
352.47 K, 13024 kPa | 725.71
352.47 K, 14013 kPa | 726.54
352.47 K, 15007 kPa | 727.34
352.47 K, 16016 kPa | 728.16
352.47 K, 17007 kPa | 728.94
352.47 K, 18020 kPa | 729.77
352.47 K, 19011 kPa | 730.53
352.47 K, 20013 kPa | 731.29
352.47 K, 21032 kPa | 732.07
352.47 K, 22020 kPa | 732.84
352.47 K, 23020 kPa | 733.6
352.47 K, 24021 kPa | 734.36
352.47 K, 25024 kPa | 735.14
362.25 K, 1020 kPa | 707.72
362.25 K, 2026 kPa | 708.74
362.25 K, 3018 kPa | 709.77
362.25 K, 4006 kPa | 710.71
362.25 K, 5021 kPa | 711.73
362.25 K, 6019 kPa | 712.7
362.25 K, 7029 kPa | 713.67
362.25 K, 8017 kPa | 714.54
362.25 K, 9011 kPa | 715.51
362.25 K, 10011 kPa | 716.42
362.25 K, 11021 kPa | 717.35
362.25 K, 12018 kPa | 718.24
362.25 K, 13014 kPa | 719.11
362.25 K, 14000 kPa | 719.97
362.25 K, 15017 kPa | 720.85
362.25 K, 16026 kPa | 721.7
362.25 K, 17019 kPa | 722.52
362.25 K, 18034 kPa | 723.36
362.25 K, 19016 kPa | 724.17
362.25 K, 20004 kPa | 725
362.25 K, 21015 kPa | 725.8
362.25 K, 22022 kPa | 726.63
362.25 K, 23008 kPa | 727.42
362.25 K, 24034 kPa | 728.22
362.25 K, 25010 kPa | 729.02
